Literature values as cited in patent US11571411B2, “Use of a bisamide derivative of malonic acid for treating allergic and other diseases in humans and animals” (PHARMENTERPRISES ALLERGY LLC, priority 2018, dated 2023).

Assays:
[1] = in vivo; cited from earlier work
H3 receptor = target: T1, H3 receptor (Homo sapiens, UniProt Q9Y5N1); conditions: humans, topical administration; cited from earlier work
T1 construct: host or cells: human volunteers (nasal mucosa, in vivo)
T1 sequence (Q9Y5N1 whole entry): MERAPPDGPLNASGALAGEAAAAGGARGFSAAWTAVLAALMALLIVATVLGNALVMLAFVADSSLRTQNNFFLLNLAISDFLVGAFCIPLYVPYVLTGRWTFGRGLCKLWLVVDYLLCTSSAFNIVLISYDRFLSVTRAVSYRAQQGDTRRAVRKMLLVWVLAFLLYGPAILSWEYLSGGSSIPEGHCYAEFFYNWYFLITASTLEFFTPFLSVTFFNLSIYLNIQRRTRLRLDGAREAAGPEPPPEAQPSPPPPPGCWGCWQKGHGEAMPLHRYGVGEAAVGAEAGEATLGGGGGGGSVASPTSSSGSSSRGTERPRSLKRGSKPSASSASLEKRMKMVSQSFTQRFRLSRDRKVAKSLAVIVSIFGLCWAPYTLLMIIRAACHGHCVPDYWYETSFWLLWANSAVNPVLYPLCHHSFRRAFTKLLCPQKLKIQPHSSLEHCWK

S=C(NC1CCCCC1)N1CCC(c2cnc[nH]2)CC1 [Thioperamide]
crossing of the blood-brain barrier [1]: cross the blood-brain barrier
effect on nasal blockage induced by R-alpha-methylhistamine (H3 receptor): reduced
